Laboratory results from PubChem BioAssay (NCI).
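GI50 marks 50% less growth. At the TGI there is no net growth.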

Assays:
Assay in all cases: NCI anticancer screen, dose series, 384-well format
NCI-H23 lung = test system: NCI-H23 lung
NCI-H322M lung = test system: NCI-H322M lung
NCI-H460 NSCLC = test system: NCI-H460 NSCLC
NCI-H522 lung = test system: NCI-H522 lung
NCI/ADR-RES ovarian = test system: NCI/ADR-RES ovarian
OVCAR-3 ovarian = test system: OVCAR-3 ovarian
OVCAR-4 ovarian = test system: OVCAR-4 ovarian
OVCAR-5 ovarian = test system: OVCAR-5 ovarian
OVCAR-8 ovarian = test system: OVCAR-8 ovarian
PC-3 prostate = test system: PC-3 prostate
RPMI-8226 leukemia = test system: RPMI-8226 leukemia
RXF 393 renal = test system: RXF 393 renal
SF-268 CNS = test system: SF-268 CNS
SF-295 CNS = test system: SF-295 CNS
SF-539 CNS = test system: SF-539 CNS
SK-MEL-2 melanoma = test system: SK-MEL-2 melanoma
SK-MEL-28 melanoma = test system: SK-MEL-28 melanoma
SK-MEL-5 melanoma = test system: SK-MEL-5 melanoma
SK-OV-3 ovarian = test system: SK-OV-3 ovarian
SN12C renal = test system: SN12C renal
SNB-19 CNS = test system: SNB-19 CNS
SR leukemia = test system: SR leukemia
SW-620 colon = test system: SW-620 colon
T-47D breast = test system: T-47D breast
TK-10 renal = test system: TK-10 renal
U251 glioblastoma = test system: U251 glioblastoma
UACC-257 melanoma = test system: UACC-257 melanoma
UACC-62 melanoma = test system: UACC-62 melanoma
UO-31 renal = test system: UO-31 renal

`COc1ccc([C@H](CC(=O)O)N2CCN(CCCc3ccc4c(n3)NCCC4)C2=O)cn1` showed a GI50 (NCI-H23 lung) greater than 100 µM, a TGI (NCI-H23 lung) greater than 100 µM and a GI50 (NCI-H322M lung) of 52.6 µM. It also gave a TGI (NCI-H322M lung) greater than 100 µM, a GI50 (NCI-H460 NSCLC) of 20.3 µM and a TGI (NCI-H460 NSCLC) greater than 100 µM. It also gave a GI50 (NCI-H522 lung) of 0.151 µM, a TGI (NCI-H522 lung) of 14.6 µM and a GI50 (NCI/ADR-RES ovarian) greater than 100 µM. The TGI (NCI/ADR-RES ovarian) was greater than 100 µM, the GI50 (OVCAR-3 ovarian) was 13.3 µM and the TGI (OVCAR-3 ovarian) was greater than 100 µM. The GI50 (OVCAR-4 ovarian) was 0.0228 µM, the TGI (OVCAR-4 ovarian) was 15.2 µM and the GI50 (OVCAR-5 ovarian) was 0.0927 µM. The TGI (OVCAR-5 ovarian) was 62.9 µM, the GI50 (OVCAR-8 ovarian) was 11.7 µM and the TGI (OVCAR-8 ovarian) was greater than 100 µM. It also gave a GI50 (PC-3 prostate) of 29.1 µM, a TGI (PC-3 prostate) greater than 100 µM and a GI50 (RPMI-8226 leukemia) of 7.91 µM. For the same molecule, the TGI (RPMI-8226 leukemia) was 21.1 µM, the TGI (RXF 393 renal) was 0.0412 µM and the GI50 (SF-268 CNS) was 0.336 µM. It also gave a TGI (SF-268 CNS) of 28.1 µM, a GI50 (SF-295 CNS) of 41.1 µM and a TGI (SF-295 CNS) greater than 100 µM. The GI50 (SF-539 CNS) was 10.1 µM, the TGI (SF-539 CNS) was 49.2 µM and the GI50 (SK-MEL-2 melanoma) was 0.0476 µM. It also gave a TGI (SK-MEL-2 melanoma) greater than 100 µM, a GI50 (SK-MEL-28 melanoma) of 44.5 µM and a TGI (SK-MEL-28 melanoma) greater than 100 µM. For the same molecule, the GI50 (SK-MEL-5 melanoma) was 83.8 µM, the TGI (SK-MEL-5 melanoma) was greater than 100 µM and the GI50 (SK-OV-3 ovarian) was 3.35 µM. It also gave a TGI (SK-OV-3 ovarian) of 65.4 µM, a GI50 (SN12C renal) of 36.7 µM and a TGI (SN12C renal) greater than 100 µM. The GI50 (SNB-19 CNS) was 0.302 µM, the TGI (SNB-19 CNS) was greater than 100 µM and the GI50 (SR leukemia) was 31.5 µM. The TGI (SR leukemia) was 86.5 µM, the GI50 (SW-620 colon) was 88.2 µM and the TGI (SW-620 colon) was greater than 100 µM. It also gave a GI50 (T-47D breast) of 14.2 µM, a TGI (T-47D breast) of 51 µM and a GI50 (TK-10 renal) of 0.0253 µM. It also gave a TGI (TK-10 renal) of 0.13 µM, a GI50 (U251 glioblastoma) of 0.561 µM and a TGI (U251 glioblastoma) greater than 100 µM. It also gave a GI50 (UACC-257 melanoma) of 44.7 µM, a TGI (UACC-257 melanoma) greater than 100 µM and a GI50 (UACC-62 melanoma) of 38 µM. For the same molecule, the TGI (UACC-62 melanoma) was greater than 100 µM, the GI50 (UO-31 renal) was 1.29 µM and the TGI (UO-31 renal) was 8.86 µM.
